# Experimental data published in patent publication US20250066310A1, “MULTI-SUBSTITUTED URACIL DERIVATIVE AND PREPARATION METHOD THEREFOR AND APPLICATION THEREOF” (HANGZHOU ADAMERCK PHARMLABS INC., priority 2021, published 2025).
# Experiments:
# [1] = system: rats with focal permanent cerebral ischemia (MCAO); assay: Focal permanent cerebral ischemic injury (MCAO), administration from 3 h post-ischemia; type: in vivo, SD rats; conditions: for Number of survivors after 15 days animal: 15 enrolled; for Mortality (%): 15-day; for Neurological function score on day 15: Bederson's method; for Weight on day 1 / Weight on day 5 / Weight on day 15: mean body weight
# [2] = system: mice injected with ellagic acid via the tail vein; assay: Effect on in vivo clotting time in mice (ellagic acid tail vein injection); conditions: Mus musculus, iv, 100 mg/kg i.g. for 4 days, ellagic acid i.v. 1 h after last dose, vs model group, read-out: Clotting time prolongation (%)
# Experimental: The control and model groups were gavaged with distilled water, and the positive clopidogrel group, and the test substance group were gavaged orally (i.g.) with drug solution in a volume of 0.1 mL/10 g for 4 consecutive days. 1 h after the last administration, all groups were injected with 0.15 mL/10 g of 0.3% ellagic acid solution via tail vein injection except for the blank group which was injected with physiological saline: 0.1 ml/10 g. After 5 min, glass capillaries were used for blood collection through the retro-orbital venous plexus, and the appearance time of coagulation filaments was recorded by glass capillaries at 10-second intervals.
# Calculation equation for prolongation of clotting time:
# Prolongation of clotting time (%)=[(mean value of clotting time in blank or administered group/mean value of clotting time in model group)−1]×100%
# [3] = middle and high dose groups compared with the model group
structure (smiles),measurement,setting,value
CCOC(=O)CCNC(=O)CCNc1cc(=O)n(C)c(=O)n1C [Compound 1-1],Number of survivors after 15 days animal,[1]; 10 mg/kg by gavage once a day,8
same,Number of survivors after 15 days animal,[1]; 20 mg/kg by gavage once a day,11
same,Number of survivors after 15 days animal,[1]; 40 mg/kg by gavage once a day,10
same,Mortality (%),[1]; 10 mg/kg by gavage,46.67%
same,Mortality (%),[1]; 20 mg/kg by gavage,26.67%
same,Mortality (%),[1]; 40 mg/kg by gavage,33.33%
same,Neurological function score on day 15,[1]; 10 mg/kg,0.88
same,Neurological function score on day 15,[1]; 20 mg/kg,0.75
same,Neurological function score on day 15,[1]; 40 mg/kg,0.5
same,Weight on day 1,[1]; 10 mg/kg,273.73 g
same,Weight on day 5,[1]; 10 mg/kg,240.73 g
same,Weight on day 15,[1]; 10 mg/kg,281.38 g
same,Weight on day 1,[1]; 20 mg/kg,281.93 g
same,Weight on day 5,[1]; 20 mg/kg,253.67 g
same,Weight on day 15,[1]; 20 mg/kg,281.10 g
same,Weight on day 1,[1]; 40 mg/kg,274.93 g
same,Weight on day 5,[1]; 40 mg/kg,288.25 g
same,Weight on day 15,[1]; 40 mg/kg,316.80 g
same,infarction rate (TTC staining),[1]; [3],significantly reduced
same,water content,[1]; [3],significantly reduced
same,change in vivo at 100 mg/kg,[2],43.3%
